# Assay results: patent US8187823B2, “Modulation of neuroglia-derived BDNF in the treatment and prevention of pain” (Université Laval, priority 2004, dated 2012)
# B1: BDNF: brain-derived neurotrophic factor; recombinant human BDNF delivered intrathecally or bath-applied (protein, listed as Homo sapiens)
# chain: MTILFLTMVISYFGCMKAAPMKEANIRGQGGLAYPGVRTHGTLESVNGPKAGSRGLTSLADTFEHVIEELLDEDQKVRPNEENNKDADLYTSRVMLSSQVPLEPPLLFLLEEYKNYLDAANMSMRVRRHSDPARRGELSVCDSISEWVTAADKKTAVDMSGGTVTVLEKVPVSKGQLKQYFYETKCNPMGYTKEGCRGIDKRHWNSQCRTTQSYVRALTMDSKKRIGWRFIRIDTSCVCTLTIKRGR
# Experiments:
# [1] = system: cultured microglia; assay: ELISA of BDNF protein in supernatant of cultured microglia; assay type: cell-based, rat; conditions: ATP stimulation; TNP-ATP 10 μM; supernatant 5 hours after treatment
# Procedure: Microglial cultures. Rat primary cultured microglia were prepared under standard conditions as described^2,21. In brief, mixed glial culture was prepared from neonatal Wistar rats and maintained for 10-16 days in DMEM medium with 10% fetal bovine serum. Microglia were separated from the primary culture by gentle shaking of the flask and replated on plastic dishes. The cells were removed from the dish surface using a cell scraper and collected in 100 μl of PBS; subsequently, the cell density of microglia was measured using a cell counter and the volume of PBS adjusted to give a final density of 1000 cells/10 μl. This method produces microglial cultures of >95% purity. For ATP-stimulation, the purified microglia were incubated with ATP (50 μM) for 1 hour. […]
# [2] = system: LI neurons; assay: Eanion of LI neurons in spinal slices from PNI rats with bath-applied agents; assay type: cell-based, rat; conditions: TNP-ATP 1 μM bath-applied, slices from allodynic rats two weeks after PNI
# Procedure: (§1) Peripheral nerve injury was induced by surgically implanting a polyethylene cuff (2 mm in length, inner diameter 0.7 mm) around the sciatic nerve of adult male Sprague-Dawley rats^3,17. For sham surgery, which was used as a control, animals had all surgical procedures exempt that the cuff was not implanted. The 50% withdrawal threshold, or 50% paw withdrawal threshold, to mechanical stimulation was assessed^3,18. […] In animals with peripheral nerve injury induced in this model, there was microglial activation in the spinal cord ipsilateral to the nerve cuff, as indicated by increased labeling for the microglial activation marker OX-42 (FIGS. 5B and 5C).
# (§2) Slice preparation. Parasagittal slices (300-350 μm) of spinal cord were prepared from adult (>50 days old) male rats as previously described^31. Slices were continually superfused (2-3 ml min^−1) with artificial cerebrospinal fluid (ACSF) containing (in mM): 126 NaCl, 26 NaHCO3, 10 glucose, 2.5 KCl, 2 CaCl2, 2 MgCl2, 1.25 NaH2PO4 (bubbled with 95% O2/5% CO2, pH ˜7.4).
# Recordings. For perforated-patch recordings, the pipette tip was filled with a solution containing (in mM): 130 potassium methyl sulphate (KMeSO4), 5 CsCl, 2 MgCl2, 11 BAPTA, 1 CaCl2, 4 ATP, 0.4 GTP, 10 HEPES (˜pH 7.4). […]
# [3] = system: rats with peripheral nerve injury; conditions: literature (ref. 2), acting on P2X receptors in microglia; cited from earlier work
# [4] = system: naïve rats; assay: Paw withdrawal threshold (WD50) after intrathecal delivery to naïve rats; assay type: in vivo, rat; conditions: for paw withdrawal threshold (WD50): intrathecal delivery to naïve/intact rats
# Procedure: as §1
# Microglial cultures. Rat primary cultured microglia were prepared under standard conditions as described^2,21. In brief, mixed glial culture was prepared from neonatal Wistar rats and maintained for 10-16 days in DMEM medium with 10% fetal bovine serum. Microglia were separated from the primary culture by gentle shaking of the flask and replated on plastic dishes. The cells were removed from the dish surface using a cell scraper and collected in 100 μl of PBS; subsequently, the cell density of microglia was measured using a cell counter and the volume of PBS adjusted to give a final density of 1000 cells/10 μl. This method produces microglial cultures of >95% purity. For ATP-stimulation, the purified microglia were incubated with ATP (50 μM) for 1 hour.
# Intrathecal injections and ELISA. At least three days before drug administration, rats were anaesthetized with sodium pentobarbital (65 mg kg^−1), and a lumbar spinal catheter (PE-10 polyethylene tube) was inserted into the intrathecal space^22. On recovery from surgery, lower-body paralysis was induced through intrathecal lidocaine (2%, 30 μl) injection to confirm proper catheter localization. […] At the doses used, none of the compounds produced motor disturbances or sedation, as assessed by grasping, righting and placing reflexes and behavioural observations^23. […]
# [5] = system: LI neurons; assay: Eanion of LI neurons in spinal slices from naïve rats with bath-applied BDNF; assay type: cell-based, rat; conditions: BDNF 50 ng/ml, >90 min
# Procedure: as §2
# Recordings. For perforated-patch recordings, the pipette tip was filled with a solution containing (in mM): 130 potassium methyl sulphate (KMeSO4), 5 CsCl, 2 MgCl2, 11 BAPTA, 1 CaCl2, 4 ATP, 0.4 GTP, 10 HEPES (˜pH 7.4). The pipette was back-filled with this same solution supplemented with 25 μg ml^−1 gramicidin D [gramicidin stock was at 10 mg ml^−1 in dimethylsulphoxide (DMSO)]. Recordings in this mode were selected when access resistance was stable between 25-45 MΩ. For whole-cell voltage-clamp recordings, pipettes were filled with the above solution lacking gramicidin D. GABA was applied locally for 10-50 ms by pressure ejection through a micro-pipette. Data acquisition and analysis of PSCs were performed as previously described^19; membrane potential measurements were corrected as previously described^20. […] All measurements are given as means±SEM, except where indicated. […]
molecule,measurement,setting,value
Nc1ncnc2c1ncn2[C@@H]1O[C@H](COP(=O)(O)OP(=O)(O)OP(=O)(O)O)[C@@H](O)[C@H]1O [ATP],release of BDNF from microglia in culture,[1],caused release of BDNF
TNP-ATP,Eanion of LI neurons,[2],−59.3±1.8 mV
same,nerve injury-induced tactile allodynia,[3],reverse nerve injury-induced tactile allodynia
same,release of BDNF from microglia in culture,[1],blocked
B1,paw withdrawal threshold (WD50),[4],decrease in paw withdrawal threshold
same,paw withdrawal threshold (WD50),[4]; listed as recombinant human BDNF,significant and transient decrease in the WD50
same,time to significant decrease in WD50,"[4]; recombinant human BDNF 20 μg intrathecal, intact rats",≤ 1 h
same,Eanion of LI neurons vs control untreated slices,[5],significantly less negative
